Laboratory results: US20250281568A1, “METHOD FOR TREATING OR PREVENTING DRUG-INDUCED LIVER INJURY WITH PEPTIDE COMPOSITION” (Tunghai University, priority 2024, published 2025)

Experiments:
Format in all cases: in vivo
[1] = test system: BALB/cByJNarl mice; assay: Analysis of stained liver tissue sections (H&E, immunohistochemical staining) of mice injected with acetaminophen; settings: 50 mg/kg/day oral, 7 days
Experimental: (§1) After being raised under the corresponding conditions for 7 days, each group of mice was weighed and then fasted for 12 hours. After fasting, each group of mice was intraperitoneally injected with an acetaminophen solution at 300 mg/kg. 24 hours after the injection, the mice were sacrificed, and blood was collected from the mice.
The liver tissue collected from each group of mice in example 2 was sectioned and then subjected to immunohistochemical staining with hematoxylin and eosin (H&E) and with different antibodies.

[2] = test system: BALB/cByJNarl mice; assay: Analysis of proteins in the liver of mice injected with acetaminophen; settings: 50 mg/kg/day oral, 7 days; vs control group
Experimental: as §1
Livers were collected from each group of mice in example 2 and were analyzed in order to determine the concentrations of superoxidase dismutase (SOD), glutathione peroxidase (GPx), and glutathione (GSH) in the livers.

[3] = test system: BALB/cByJNarl mice; assay: Biochemical analysis of blood (serum) of mice injected with acetaminophen; settings: 50 mg/kg/day oral, 7 days
Experimental: as §1
The blood collected from each group of mice in example 2 was analyzed with a commercial assay kit in order to determine the concentrations of aspartate aminotransferase (AST), alanine aminotransferase (ALT), alkaline phosphatase (ALP), C-reactive protein (CRP), interleukin-6 (IL-6), and monocyte chemoattractant protein-1 (MCP-1) in the serum of each group of mice.

[4] = Animal test: body weight and organ weights of mice; settings: 50 mg/kg/day oral, 7 days, then acetaminophen 300 mg/kg i.p.
Experimental: as §1

[5] = immunohistochemical staining, vs control group

NCCC(=O)N[C@@H](Cc1cnc[nH]1)C(=O)O [carnosine]
expression amount of 4-hydroxy-2-nonenal (4-HNE) in the liver [1, 5]: significantly less | expression amount of GSH in the liver [1, 5]: significantly greater | expression amount of Kelch-like ECH-associated protein 1 (Keap1) in the liver [1, 5]: significantly less | expression amount of heme oxygenase 1 (HO-1) in the liver [1, 5]: significantly greater | expression amount of nuclear factor erythroid 2-related factor 2 (Nrf2) in the liver [1, 5]: significantly greater | liver cell damage (H&E-stained liver section) ([1]; vs blank group): significantly damaged in comparison with those of the blank group | liver cell damage (H&E-stained liver section) ([1]; vs control group): damaged to a smaller extent than those of the control group | liver GPx concentration [2]: significantly higher than those of the control group | liver GSH concentration [2]: significantly higher than those of the control group | liver SOD concentration [2]: significantly higher than those of the control group | serum CRP concentration ([3]; vs blank group): not significantly different from that of the blank group | serum ALP concentration ([3]; vs control group): significantly lower than those of the control group | serum ALT concentration ([3]; vs control group): significantly lower than those of the control group | serum AST concentration ([3]; vs control group): significantly lower than those of the control group | serum CRP concentration ([3]; vs control group): significantly lower than that of the control group | serum IL-6 concentration ([3]; vs control group): lower than that of the control group | serum MCP-1 concentration ([3]; vs control group): significantly lower than that of the control group | weight of heart ([4]; 24 hours, among the groups): no significant difference in the weight of heart | liver weight ([4]; vs control group): liver weight of the control group of mice was significantly higher than those of the other groups
